Article PMC11459959, “Discovery of new acetamide derivatives of 5-indole-1,3,4-oxadiazol-2-thiol as inhibitors of HIV-1 Tat-mediated viral transcription” (Antimicrobial Agents and Chemotherapy, 2024)

How the values were obtained:
Format in all cases: cell-based
HIV-1NL4-3 [1] = assay: HIV-1 replication in PBMCs (p24 […]); conditions: Table S1, WT virus, 10-fold serial dilution, read-out: EC50
Protocol: (§1) The p24 level from the cell supernatant was subsequently determined using a p24 […] kit (PerkinElmer). In parallel, the cell viability was determined without viral infection because of the viral cytopathic effect. […] In parallel, cell viability was determined. The data (A and B) are presented as the mean ± SD (n = 3). (C) PBMCs (4 × 10^5) infected with HIV-AD8 at an MOI of 0.1 were treated with 1.5 µM of the compounds or ARVs for 3 days. The levels of p24 and cell viability were subsequently determined. (D) J1.1 cells were cultured with the compounds ([…]) under 50 ng/mL phorbol myristate acetate (PMA) treatment for 2 days. The level of p24 was subsequently determined. (E) J-Lat 6.3 cells were treated with the compounds (1.5 µM) under 1 µg/mL of PMA for 2 days. The GFP-positive cell population was analyzed using flow cytometry. The data are represented as a value relative to the DMSO-treated vehicle (D) and a percent of the GFP^+ cell population (E) as mean ± SD (n = 3).
(§2) The inhibitory effects of the compounds on viral replication were determined with some minor modifications, as previously described ([12], [62]). […] PBMCs (4 × 10^5) pre-activated with PHA-M for 3 days were washed with fresh media to remove excess PHA-M and subsequently infected with HIV-1NL4-3 or HIV-1AD8 or PIs-resistant HIV-1 strains as A3.01 infection. After infection, the infectious media were replaced with fresh media supplemented with international 10 units (IU)/mL of IL-2 and the indicated compounds. At 72 h after infection, the inhibitory effect of the compounds on viral replication was determined by measuring the p24 amount, an HIV capsid protein, using an HIV-1 p24 […] kit (PerkinElmer, Waltham, MA, USA). Cell viability was determined as described above. The inhibitory effects on provirus reversing in J1.1 and J-Lat 6.3 cells were determined as previously described ([12], [41], [63]) with some minor modifications. Briefly, 5 × 10^4 persistently HIV-1-infected J1.1 or J-Lat 6.3 cells were cultured in either the presence or absence of the compounds at a final concentration of 1.5 µM and treated with PMA (50 ng/mL for J1.1 cells, 1 µg/mL for J-Lat 6.3 cells). Two days after treatment, the levels of viral production were determined using p24 […] for J1.1 cells and flow cytometry analysis for GFP-expressing J-Lat 6.3 cells.

[2] = system: PI-resistant HIV-1 strain 11800; assay: microbe, parasite or virus in culture; conditions: PI-resistant 11800, PBMCs, 10-fold serial dilution; read-out: EC50
From the text: (§3) The Tzm-bl-derived dual Tat reporter; TZM-bl/Tat/Rluc (bl-DTR) cells were established from TZM-bl cells using two Dox-inducible lentiviral expression cassettes cloned with Flag-tagged Tat86 and the R-Luc gene, as described in our previous study ([11]). TZM-bl, A3.01, J1.1, and J-Lat 6.3 cells as well as the HIV-1 molecular clone pNL4-3, pNL(AD8), ARV-resistant HIV-1 strains, and HIV-1NL43-IRES-eGFP (pBR43IeG-nef^+, gifted by Dr. Frank Kirchhoff) ([52]) were provided by the National Institute of Health HIV Reagent Program (NIH, Bethesda, MD, USA). HeLa (CCL-2) and 293T (CRL-3216) cell lines were purchased from the American Type Culture Collection (ATCC, Manassas, VA, USA). The bl-DTR, TZM-bl, HeLa, and 293T cells were cultured in Dulbecco’s modified Eagle’s medium supplemented with 1% penicillin–streptomycin and 10% (vol/vol) heat-inactivated fetal bovine serum (all from Gibco-BRL, Gaithersburg, MD, USA), and 1 µg/mL of puromycin and 200 µg/mL of zeocin were additionally supplemented for the bl-DTR cells. PBMCs were purchased from AllCells (Alameda, CA, USA) and cultured as previously described ([12]). The information on ARV-resistant HIV-1 strains was described in previous reports as follows: NNRTI-resistant 12241 and 12243 ([53]); NRTI-resistant 7396, 7406, and 7407 ([54]); INSTI-resistant 11847 and 11849 ([55], [56]); and PI-resistant 11800 and 11803 ([57]). Each molecular HIV-1 clone was transfected to 293T cells, as previously described ([58]), to obtain infectious HIV-1 particles. Virus-containing cell culture supernatants were collected 3 days after transfection, and filtered through a 0.45-µm membrane filter (Millipore Sigma, Burlington, MA, USA) to remove cell debris. The viral titration was performed as described previously ([59]) with some minor modifications. In brief, 1 × 10^4 TZM-bl cells seeded in 96-well plates were infected with 200 µL of virus-containing medium diluted serially twofold. The incubation was for 2 days and the experiment was performed in triplicate; the infection time minimized the virus spread ([59]). The titration of the infectious viral particles was performed with a ß-Gal staining assay using the ßeta-Galactosidase Staining Kit (Mirus Bio, Madison, WI, USA) following the manufacturer’s protocols. In brief, the infected cells were washed with phosphate-buffered saline (PBS) and fixed using a Cell Fixative Working solution. The cells were washed with PBS and stained using the Cell Staining Working Solution containing X-gal. The infected blue-colored cells were counted under a microscope (100× magnification). The infectious virus titer was determined as a mean value of blue-colored cells count × dilution factor and used for determining the multiplicity of infection (MOI) in each infection experiment.
(§4) The inhibitory effects of the compounds on viral replication were determined with some minor modifications, as previously described ([12], [62]). […] PBMCs (4 × 10^5) pre-activated with PHA-M for 3 days were washed with fresh media to remove excess PHA-M and subsequently infected with HIV-1NL4-3 or HIV-1AD8 or PIs-resistant HIV-1 strains as A3.01 infection. After infection, the infectious media were replaced with fresh media supplemented with international 10 units (IU)/mL of IL-2 and the indicated compounds. At 72 h after infection, the inhibitory effect of the compounds on viral replication was determined by measuring the p24 amount, an HIV capsid protein, using an HIV-1 p24 […] kit (PerkinElmer, Waltham, MA, USA). Cell viability was determined as described above. The inhibitory effects on provirus reversing in J1.1 and J-Lat 6.3 cells were determined as previously described ([12], [41], [63]) with some minor modifications.

[3] = system: PI-resistant HIV-1 strain 11803; assay: microbe, parasite or virus in culture; conditions: PI-resistant 11803, PBMCs, 10-fold serial dilution; read-out: EC50
From the text: as §3, §4

HIV-1NL4-3 [4] = assay: HIV-1 infectivity in TZM-bl cells (F-Luc); conditions: Human immunodeficiency virus 1, TZM-bl, 48 h, Table S1, WT virus, TZM-bl, fivefold serial dilutions, MOI 1, 48 h
Protocol: (§6) The TZM-bl cells (also referred to as JC53BL-13) expressing human CD4, CXCR4, and CCR5 carrying the F-Luc and lacZ genes downstream of the HIV-1 LTR promoter ([60]) were used to determine the inhibitory effect of the compounds on HIV-1 infection, as previously described ([11], [12], [61]). In brief, 1 × 10^4 cells were cultured in 96-well plates for 24 h and subsequently treated with compounds at the indicated concentrations. Without replacement of the culture medium, the cells were subsequently infected with the HIV-1NL4-3 wild-type or ARV-resistant HIV-1 strains at an MOI of 1 to determine the exact inhibitory effect of compounds on a single-round infection. After 48 h, the inhibitory effect of the compounds was determined using a Bright Glo luciferase assay kit (Promega) or β-Galactosidase Enzyme Assay kit (Promega). The infectivity data were presented as a percentage relative to the dimethyl sulfoxide (DMSO) control (vehicle). Cell viability was determined using the resazurin-based PrestoBlue Cell Viability Reagent (Thermo Fisher Scientific, Waltham, MA, USA) following the manufacturer’s instructions.

[5] = system: NRTI-resistant HIV-1 strain 7396; assay: microbe, parasite or virus in culture; conditions: Human immunodeficiency virus 1, TZM-bl
Protocol: (§5) Fig 7 (A–C) TZM-bl cells (1 × 10^4 cells/well) cultured in a 96-well plate were treated with fivefold serial dilutions of the indicated compound or ARV for 1 h before infection with the HIV-1NL4-3 or ARV-resistant HIV-1 strains at an MOI of 1, respectively. At 48 h after infection, the EC50 values were determined using an F-Luc activity. The symbols represent the fold-change values of EC50 against each mutant virus relative to the wild-type (WT) virus. (D) PBMCs (5 × 10^4 cells/well) were infected with the HIV-1NL4-3 and PIs-resistant HIV-1 strain at an MOI of 0.1, respectively. Subsequently, the PBMCs were treated with 10-fold serial dilutions of the indicated compounds or PI. At 3 days after infection, the EC50 values on the viral replication were determined using a p24 […] assay kit. (E) The inhibitory kinetics for the WT and ARV-resistant viruses. TZM-bl cells infected with WT or ARV-resistant viruses were cultured upon fivefold serial dilutions of each compound for 2 days and the infectivity was determined using an F-Luc activity.
as §3

[6] = system: NRTI-resistant HIV-1 strain 7406; assay: microbe, parasite or virus in culture; conditions: Human immunodeficiency virus 1, TZM-bl
Protocol: as §5, §3

[7] = system: NRTI-resistant HIV-1 strain 7407; assay: microbe, parasite or virus in culture; conditions: Human immunodeficiency virus 1, TZM-bl
Protocol: as §5, §3

HIV-1NL4-3 [8] = assay: Time-of-addition assay in TZM-bl cells; conditions: HIV-1NL4-3 MOI 1, 9 and 13 1.5 μM, T-20 1 µM, triptolide 5 nM, ARVs 1 µM, F-Luc at 54 h
Protocol: Fig 5 (A) Time-of-addition assay. […] Subsequently, the cells were treated with the compounds at the indicated time points (0, 1, 2, 4, 6, 8, 10, 12, 24, 30, 36, 42, and 48 h) after HIV-1 infection. The final concentrations of compounds are described in Materials and Methods. Viral activity according to the timing of drug addition was measured as F-Luc activity at 54 h after infection. The relative activities are represented as the mean ± SD (n = 3) compared with the activity observed 54 h post-infection. The relative time frames associated with each HIV-1 infection step are defined based on the time frame of susceptibility to the drug that blocks that particular infection step. […] At 16 h after infection, the viral reverse transcription (RT) product (viral cDNA) level was determined by quantitative real-time PCR (RT-qPCR) using gag and 18S rRNA primer sets and represented as the mean ± SD (n = 3) normalized against the amount of the 18S rRNA compared with the DMSO control. **P < 0.01 compared with the vehicle (DMSO). (C) An in vitro integrase (IN) assay was performed with 10 µM of the indicated compounds following the manufacturer’s protocol. **P < 0.01 compared with vehicle (DMSO). (D) A3.01 cells were infected with HIV-1 upon treatment with the indicated compounds (5 µM) and ARVs (EFV and DTG) as the experimental controls. At 40 h after infection, cellular chromosomal DNA was purified, and the integrated proviral DNA was detected through nested Alu-PCR amplification.
A time-of-addition assay was performed as previously described ([25]) with minor modifications. […] Reference drug and test compounds were subsequently added at the indicated time (0, 1, 2, 4, 6, 8, 10, 12, 24, 30, 36, 42, and 48 h after infection). Final concentrations were as follows: compounds 9 and 13 (1.5 μM), T-20 (1 µM), Triptolide (5 nM), and ARVs (AZT, EFV, DTG, RAL) (1 µM). The viral activity according to the timing of drug addition was measured using a Bright Glo luciferase assay kit (Promega). Virus activity curves present a % activity relative to the activity observed at 54 h after infection, and the data are presented as the mean ± standard deviation (SD) (n = 3). The relative time frame associated with each HIV-1 infection step was defined based on the sensitivity to each drug that blocks a particular infection step.

[9] = Cell viability of TZM-bl cells (PrestoBlue); conditions: human; TZM-bl cells, absence of HIV-1 infection; mean ± SD; read-out: CC50
Protocol: as §6

[10] = system: HIV-1NL4-3 IRES-eGFP-nef+; assay: eGFP-encoding HIV-1 infection of TZM-bl cells; conditions: 9, 10, 13 1.5 μM, 20, 21, 22 4 μM, seliciclib 10 µM, triptolide 5 nM, DTG 2 nM, EFV 2 nM, 2 days
Protocol: Fig 4 (A) Comparison of the chemical structures between prominent derivatives (9, 10, and 13) and non-functional derivatives (20, 21 and 22). (B) bl-DTR cells were treated with serial dilutions of each compound upon Dox for 24 h. The activities of F-Luc and R-Luc were determined using the Dual-Glo -Luciferase assay system. (C) TZM-bl cells were infected with the HIV-1NL4-3 strain at an MOI of 1 upon treatment of compounds. At 48 h after infection, the viral infectivity and cell viability were determined as described above (Fig. 1). (D) TZM-bl cells were infected with HIV-1NL4-3 IRES-eGFP virus along with the compound treatment. Two days later, GFP-expressing cells were observed by fluorescence microscopy (100× magnification). […] At 48 h after infection, the β-gal activity indicating viral infectivity was determined using the β-gal Enzyme Assay kit. F-Luc activity and cell viability were determined as described above (Fig. 4C). (C and E) The dose-response curves show the relative activity compared with that of the DMSO vehicle (mean ± SD; n = 3).

[11] = Cell viability of A3.01 cells; conditions: human; A3.01 cells, absence of HIV-1 infection; mean ± SD; read-out: CC50
Protocol: as §1, §2

Cell viability of PBMCs = conditions: human; PBMCs, absence of HIV-1 infection; mean ± SD; read-out: CC50
Protocol: as §1, §2

Compound: Cc1c(O)cccc1C(=O)N[C@@H](CSc1ccccc1)[C@H](O)CN1C[C@H]2CCCC[C@H]2C[C@H]1C(=O)NC(C)(C)C [NFV, nelfiravir]
- EC50 (HIV-1NL4-3 [1]): < 0.001 µM
- EC50 [2]: 0.42 ± 0.02 µM
- EC50 [3]: 1.64 ± 0.22 µM

Compound: CC(C)(C)NC(=O)[C@@H]1C[C@@H]2CCCC[C@@H]2CN1C[C@@H](O)[C@H](Cc1ccccc1)NC(=O)[C@H](CC(N)=O)NC(=O)c1ccc2ccccc2n1 [SQV, sequinavir]
- EC50 (HIV-1NL4-3 [1]): 0.00824 ± 0.00015 µM
- EC50 [2]: 0.01 µM
- EC50 [3]: 1.24 ± 0.13 µM

Compound: Nc1ccn([C@@H]2CS[C@H](CO)O2)c(=O)n1 [Compound 3TC, lamivudine]
- EC50 (HIV-1NL4-3 [4]): 1.23 ± 0.22 µM
- EC50 [5]: 3.64 ± 1.37 µM
- EC50 [6]: > 100 µM
- EC50 [7]: > 100 µM

Compound: Cc1cn([C@H]2C[C@H](N=[N+]=[N-])[C@@H](CO)O2)c(=O)[nH]c1=O [AZT, zidovudine]
- EC50 (HIV-1NL4-3 [4]; read-out: EC50): 0.11 ± 0.01 µM
- EC50 [5]: 16.4 ± 1.37 µM
- EC50 [6]: 73.12 ± 0.43 µM
- EC50 [7]: > 100 µM
- time of administration after infection at which effectiveness began to decrease / was lost (HIV-1NL4-3 [8]): 6 h

Compound: enfuvirtide [Compound T-20]
- time of administration after infection at which effectiveness began to decrease / was lost (HIV-1NL4-3 [8]): 1 h

Compound: Nc1nc(NC2CC2)c2ncn([C@H]3C=C[C@@H](CO)C3)c2n1 [ABC, abacavir]
- EC50 (HIV-1NL4-3 [4]; read-out: EC50): 12.2 ± 7.48 µM
- EC50 [5]: 22.4 ± 0.39 µM
- EC50 [6]: > 100 µM
- EC50 [7]: > 100 µM

Compound: CC[C@H](CO)Nc1nc(NCc2ccccc2)c2ncn(C(C)C)c2n1 [seliciclib, reference compound]
- CC50 at 48 h [9]: 39.2 ± 4.09 µM
- inhibition of viral-expressed eGFP signal [10]: remarkably inhibited
- CC50 at 3 days [11]: 27 ± 1.12 µM
- CC50 at 3 days (Cell viability of PBMCs): 21.4 ± 2.1 µM
